What was measured:
mouse TAAR1 = target: T1, mouse TAAR1 (Mus musculus, UniProt Q923Y8); test: TAAR1 radioligand binding with [3H]-rac-2-(1,2,3,4-tetrahydro-1-naphthyl)-2-imidazoline, membranes of stably transfected HEK293 cells; conditions: first value of the cell, read-out: Ki (μM) mouse/rat: mouse
T1 construct: expressed in transfected cells; host or cells: HEK293 (ATCC # CRL-1573), stably transfected with pIRESneo2 expression plasmid
Protocol: (§1) For the construction of expression plasmids the coding sequences of human, rat and mouse TAAR 1 were amplified from genomic DNA essentially as described by Lindemann et al.. The Expand High Fidelity PCR System (Roche Diagnostics) was used with 1.5 mM Mg^2+ and purified PCR products were cloned into pCR2.1-TOPO cloning vector (Invitrogen) following the instructions of the manufacturer. PCR products were subcloned into the pIRESneo2 vector (BD Clontech, Palo Alto, Calif.), and expression vectors were sequence verified before introduction in cell lines.
(§2) HEK293 cells (ATCC # CRL-1573) were cultured essentially as described by Lindemann et al. (2005). For the generation of stably transfected cell lines HEK293 cells were transfected with the pIRESneo2 expression plasmids containing the TAAR coding sequences (described above) with Lipofectamine 2000 (Invitrogen) according to the instructions of the manufacturer, and 24 hrs post transfection the culture medium was supplemented with 1 mg/ml G418 (Sigma, Buchs, Switzerland). After a culture period of about 10 d clones were isolated, expanded and tested for responsiveness to trace amines (all compounds purchased from Sigma) with the cAMP Biotrak Enzyme immunoassay (EIA) System (Amersham) following the non-acetylation EIA procedure provided by the manufacturer.
(§3) Cells at confluence were rinsed with ice-cold phosphate buffered saline without Ca^2+ and Mg^2+ containing 10 mM EDTA and pelleted by centrifugation at 1000 rpm for 5 min at 4° C. The pellet was then washed twice with ice-cold phosphate buffered saline and the cell pellet was frozen immediately by immersion in liquid nitrogen and stored until use at −80° C. The cell pellet was then suspended in 20 ml HEPES-NaOH (20 mM), pH 7.4 containing 10 mM EDTA, and homogenized with a Polytron (PT 3000, Kinematica) at 10,000 rpm for 10 s. The homogenate was centrifuged at 48,000×g for 30 min at 4° C. and the pellet resuspended in 20 ml HEPES-NaOH (20 mM), pH 7.4 containing 0.1 mM EDTA (buffer A), and homogenized with a Polytron at 10,000 rpm for 10 s. The homogenate was then centrifuged at 48,000×g for 30 min at 4° C. and the pellet resuspended in 20 ml buffer A, and homogenized with a Polytron at 10,000 rpm for 10 s. Protein concentration was determined by the method of Pierce (Rockford, Ill.). The homogenate was then centrifuged at 48,000×g for 10 min at 4° C., resuspended in HEPES-NaOH (20 mM), pH 7.0 including MgCl2 (10 mM) and […] homogenized with a Polytron at 10,000 rpm for 10 s.
(§4) The binding assay was performed at 4° C. in a final volume of 1 ml, and with an incubation time of 30 min. The radioligand [^3H]-rac-2-(1,2,3,4-tetrahydro-1-naphthyl)-2-imidazoline was used at a concentration equal to the calculated Kd value of 60 nM to give a bound at around 0.1% of the total added radioligand concentration, and a specific binding which represented approximately 70-80% of the total binding. Non-specific binding was defined as the amount of [^3H]-rac-2-(1,2,3,4-tetrahydro-1-naphthyl)-2-imidazoline bound in the presence of the appropriate unlabelled ligand (10 μM). Competing ligands were tested in a wide range of concentrations (10 pM-30 μM). […] Each experiment was performed in duplicate. All incubations were terminated by rapid filtration through UniFilter-96 plates (Packard Instrument Company) and glass filter GF/C, pre-soaked for at least 2 h in polyethylenimine 0.3%, and using a Filtermate 96 Cell Harvester (Packard Instrument Company). The tubes and filters were then washed 3 times with 1 ml aliquots of cold buffer B. Filters were not dried and soaked in Ultima gold (45 μl/well, Packard Instrument Company) and bound radioactivity was counted by a TopCount Microplate Scintillation Counter (Packard Instrument Company).

rat TAAR1 = target: T2, rat TAAR1 (Rattus norvegicus, UniProt Q923Y9); test: as above; conditions: second value of the cell, read-out: Ki (μM) mouse/rat: rat
T2 construct: expressed in transfected cells; host or cells: HEK293 (ATCC # CRL-1573), stably transfected with pIRESneo2 expression plasmid
Protocol: as §1, §2, §3, §4

T2 sequence (Q923Y9 whole entry): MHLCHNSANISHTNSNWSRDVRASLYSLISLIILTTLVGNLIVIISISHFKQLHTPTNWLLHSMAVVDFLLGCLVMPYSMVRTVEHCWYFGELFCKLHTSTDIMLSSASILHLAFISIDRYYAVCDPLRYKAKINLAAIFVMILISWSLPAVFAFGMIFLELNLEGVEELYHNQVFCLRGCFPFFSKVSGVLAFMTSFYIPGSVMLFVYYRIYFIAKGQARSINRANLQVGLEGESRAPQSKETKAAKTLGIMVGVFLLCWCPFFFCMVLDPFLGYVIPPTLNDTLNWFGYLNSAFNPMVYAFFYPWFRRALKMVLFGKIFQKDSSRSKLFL
T1 sequence (Q923Y8 whole entry): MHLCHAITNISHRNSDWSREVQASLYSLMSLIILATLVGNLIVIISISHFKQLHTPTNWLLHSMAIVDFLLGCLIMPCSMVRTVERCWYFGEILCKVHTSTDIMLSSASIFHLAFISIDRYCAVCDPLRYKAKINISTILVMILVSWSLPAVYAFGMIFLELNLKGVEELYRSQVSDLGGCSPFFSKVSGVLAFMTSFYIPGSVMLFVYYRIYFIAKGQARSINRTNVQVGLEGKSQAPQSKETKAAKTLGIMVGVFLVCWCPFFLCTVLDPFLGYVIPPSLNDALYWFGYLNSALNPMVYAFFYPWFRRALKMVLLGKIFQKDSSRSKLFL

Row | Ki (mouse TAAR1) [µM] | Ki (rat TAAR1) [µM] | Compound
1 | 0.0003 | 0.0006 | NC1=N[C@@H](CCc2ccc(NC(=O)c3ccc(Cl)cc3Cl)cc2)CO1 [Example 137, (S)-N-(4-(2-(2-Amino-4,5-dihydrooxazol-4-yl)ethyl)phenyl)-2,4-dichlorobenzamide]
2 | 0.0019 | 0.0006 | Cc1cc(C)nc(C(=O)Nc2ccc(CC[C@H]3COC(N)=N3)cc2)c1 [Example 157, (S)-N-(4-(2-(2-Amino-4,5-dihydrooxazol-4-yl)ethyl)phenyl)-4,6-dimethylpicolinamide]
3 | 0.0004 | 0.0004 | CCc1ccc(C(=O)Nc2ccc(CC[C@H]3COC(N)=N3)cc2)nc1 [Example 178, (S)-N-(4-(2-(2-Amino-4,5-dihydrooxazol-4-yl)ethyl)phenyl)-5-ethylpicolinamide]
4 | 0.0028 | 0.0023 | CCc1cnc(C(=O)Nc2ccc(CC[C@H]3COC(N)=N3)cc2)cn1 [Example 208, (S)-N-(4-(2-(2-Amino-4,5-dihydrooxazol-4-yl)ethyl)phenyl)-5-ethylpyrazine-2-carboxamide]
5 | 0.0015 | 0.0022 | CCc1ocnc1C(=O)Nc1ccc(CC[C@H]2COC(N)=N2)cc1 [Example 213, (S)-N-(4-(2-(2-Amino-4,5-dihydrooxazol-4-yl)ethyl)phenyl)-5-ethyloxazole-4-carboxamide]
6 | 0.0084 | 0.0019 | Cc1cc(C(=O)Nc2ccc(CC[C@H]3COC(N)=N3)cc2)ccn1 [Example 172, (S)-N-(4-(2-(2-Amino-4,5-dihydrooxazol-4-yl)ethyl)phenyl)-2-methylisonicotinamide]
7 | 0.0079 | 0.0054 | COc1cncc(C(=O)Nc2ccc(CC[C@H]3COC(N)=N3)cc2)n1 [Example 128, (S)-N-(4-(2-(2-Amino-4,5-dihydrooxazol-4-yl)ethyl)phenyl)-6-methoxypyrazine-2-carboxamide]
8 | 0.0004 | 0.0006 | Cc1cc(C(=O)Nc2ccc(CC[C@H]3COC(N)=N3)cc2)ncc1Cl [Example 155, (S)-N-(4-(2-(2-Amino-4,5-dihydrooxazol-4-yl)ethyl)phenyl)-5-chloro-4-methylpicolinamide]
9 | 0.0017 | 0.0004 | NC1=N[C@@H](CCc2ccc(NC(=O)Nc3ccc(Cl)nc3)cc2)CO1 [Example 38, 1-{4-[2-((S)-2-Amino-4,5-dihydro-oxazol-4-yl)-ethyl]-phenyl}-3-(6-chloro-pyridin-3-yl)-urea]

The remaining lines, values behind:

Row | Compound | Ki (mouse TAAR1) [µM] | Ki (rat TAAR1) [µM]
10 | C[C@@H]1OC(N)=N[C@H]1CCc1ccc(NC(=O)c2ccc(Cl)cc2)cc1 [Example 205, N-(4-(2-((4S,5S)-2-Amino-5-methyl-4,5-dihydrooxazol-4-yl)ethyl)phenyl)-4-chlorobenzamide] | 0.0007 | 0.0005
11 | COc1cc(C(=O)Nc2ccc(CC[C@@H]3N=C(N)O[C@H]3C)cc2)nc(Cl)n1 [Example 219, 2-Chloro-6-methoxy-pyrimidine-4-carboxylic acid {4-[2-((4S,5S)-2-amino-5-methyl-4,5-dihydro-oxazol-4-yl)-ethyl]-phenyl}-amide] | 0.0048 | 0.0037
12 | NC1=N[C@@H](CCc2ccc(NC(=O)Oc3ccc(F)cc3)cc2)CO1 [Example 148, {4-[2-((S)-2-Amino-4,5-dihydro-oxazol-4-yl)-ethyl]-phenyl}-carbamic acid 4-fluoro-phenyl ester] | 0.0005 | 0.0006
13 | C#Cc1ccc(NC(=O)c2ccc(CC[C@H]3COC(N)=N3)cc2)cc1 [Example 145, (S)-4-(2-(2-amino-4,5-dihydrooxazol-4-yl)ethyl)-N-(4-ethynylphenyl)benzamide] | 0.0018 | 0.0001
14 | C[C@H]1OC(N)=N[C@H]1CCc1ccc(NC(=O)c2ccc(Cl)cc2)cc1 [Example 206, N-(4-(2-((4S,5R)-2-Amino-5-methyl-4,5-dihydrooxazol-4-yl)ethyl)phenyl)-4-chlorobenzamide] | 0.0076 | 0.0013
15 | NC1=NC(c2ccc(NC(=O)Nc3ccc(Cl)cc3)cc2)CO1 (racemic) [Example 1, (RS)-1-[4-(2-Amino-4,5-dihydro-oxazol-4-yl)-phenyl]-3-(4-chloro-phenyl)-urea] | 0.0026 | 0.0005
16 | CC1(C(=O)Nc2ccc(CC[C@H]3COC(N)=N3)cc2)CC1 [Example 41, 1-Methyl-cyclopropanecarboxylic acid {4-[2-((S)-2-amino-4,5-dihydro-oxazol-4-yl)-ethyl]-phenyl}-amide] | 0.0091 | 0.0094
17 | C[C@@H]1OC(N)=N[C@H]1CCc1ccc(NC(=O)c2ccc(C(F)(F)F)cn2)cc1 [Example 226, 5-Trifluoromethyl-pyridine-2-carboxylic acid {4-[2-((4S,5S)-2-amino-5-methyl-4,5-dihydro-oxazol-4-yl)-ethyl]-phenyl}-amide] | 0.0011 | 0.0021
18 | NC1=N[C@@H](CCc2ccc(NC(=O)c3cnc(C(F)(F)F)nc3C3CC3)cc2)CO1 [Example 209, (S)-N-(4-(2-(2-Amino-4,5-dihydrooxazol-4-yl)ethyl)phenyl)-4-cyclopropyl-2-(trifluoromethyl)pyrimidine-5-carboxamide] | 0.0013 | 0.0035
19 | NC1=N[C@@H](CCc2ccc(NC(=O)c3nccc4ccccc34)cc2)CO1 [Example 93, Isoquinoline-1-carboxylic acid {4-[2-((S)-2-amino-4,5-dihydro-oxazol-4-yl)-ethyl]-phenyl}-amide] | 0.0016 | 0.0003
20 | NC1=N[C@@H](CCc2ccc(NC(=O)CCc3ccccc3Cl)cc2)CO1 [Example 80, N-{4-[2-((S)-2-Amino-4,5-dihydro-oxazol-4-yl)-ethyl]-phenyl}-3-(2-chloro-phenyl)-propionamide] | 0.0014 | 0.0011
21 | NC1=N[C@@H](CCc2ccc(NC(=O)C3CCC3)cc2)CO1 [Example 45, Cyclobutanecarboxylic acid {4-[2-((S)-2-amino-4,5-dihydro-oxazol-4-yl)-ethyl]-phenyl}-amide] | 0.0026 | 0.0017
22 | NC1=N[C@@H](CCc2ccc(NC(=O)C3CCC(F)(F)CC3)cc2)CO1 [Example 40, 4,4-Difluoro-cyclohexanecarboxylic acid {4-[2-((S)-2-amino-4,5-dihydro-oxazol-4-yl)-ethyl]-phenyl}-amide] | 0.0036 | 0.0187
23 | Cc1ocnc1C(=O)Nc1ccc(CC[C@@H]2N=C(N)O[C@H]2C)cc1 [Example 222, 5-Methyl-oxazole-4-carboxylic acid {4-[2-((4S,5S)-2-amino-5-methyl-4,5-dihydro-oxazol-4-yl)-ethyl]-phenyl}-amide] | 0.0071 | 0.004
24 | CC(C(=O)Nc1ccc(CC[C@H]2COC(N)=N2)cc1)c1cccc(C(F)(F)F)c1 (stereo partly drawn) [Example 81, N-{4-[2-((S)-2-Amino-4,5-dihydro-oxazol-4-yl)-ethyl]-phenyl}-2-(3-trifluoromethyl-phenyl)-propionamide] | 0.001 | 0.0022
25 | COc1ccc(CC(=O)Nc2ccc(CC[C@H]3COC(N)=N3)cc2)cc1 [Example 68, N-{4-[2-((S)-2-Amino-4,5-dihydro-oxazol-4-yl)-ethyl]-phenyl}-2-(4-methoxy-phenyl)-acetamide] | 0.0043 | 0.0019
26 | NC1=N[C@@H](CCc2ccc(NS(=O)(=O)c3ccc(Cl)c(Cl)c3)cc2)CO1 [Example 76, N-{4-[2-((S)-2-Amino-4,5-dihydro-oxazol-4-yl)-ethyl]-phenyl}-3,4-dichloro-benzenesulfonamide] | 0.009 | 0.0009

From patent US8354441B2, “Oxazoline derivatives” (Hoffmann-La Roche Inc., priority 2009, dated 2013)
